Data from the supplement of paper PMC12592484.

Columns and labels:
Test in all cases: drug sensitivity score (DSS2, normalised partial AUC of dose-response, 72 h CellTiter-Glo viability) (DSS (dimensionless)); higher = more sensitive (stronger growth inhibition / cytotoxicity); extreme values may be limits of the assay
22Rv1 = test system: 22Rv1
How it was run: (§1)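 Five doses spanning a 10,000-fold range were pre-dispensed into 384-well plates, into which low-passage primary prostate cancer-associated fibroblasts, PF179T, WPMY-1, LNCaP and 22Rv1 cells were seeded. After 72 h, CellTiter-Glo 2.0 luminescence measured viability, scaled to vehicle and positive-control wells. Higher values of the drug sensitivity score, a BREEZE-computed partial area under the fitted logistic dose–response curve divided by the log of the upper asymptote, mean greater sensitivity.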

CAF#1 = test system: CAF#1 (primary prostate cancer-associated fibroblasts of myCAF-like type)
How it was run: as §1

CAF#2 = test system: CAF#2 (primary prostate cancer-associated fibroblasts of iCAF-like type)
How it was run: as §1

CAF#3 = test system: CAF#3 (primary prostate cancer-associated fibroblasts of myCAF-like type)
How it was run: as §1

CAF#4 = test system: CAF#4 (primary prostate cancer-associated fibroblasts of iCAF-like type)
How it was run: as §1

CAF#5 = test system: CAF#5 (primary prostate cancer-associated fibroblasts of myCAF-like type)
How it was run: as §1

CAF#6 = test system: CAF#6 (primary prostate cancer-associated fibroblasts of iCAF-like type)
How it was run: as §1

CAF#7 = test system: CAF#7 (primary prostate cancer-associated fibroblasts of myCAF-like type)
How it was run: as §1

LNCAP = test system: LNCAP
How it was run: as §1

PF179T = test system: PF179T
How it was run: as §1

WPMY-1 = test system: WPMY-1
How it was run: as §1

Row | Structure (SMILES) | drug sensitivity score (22Rv1) | drug sensitivity score (CAF#1) | drug sensitivity score (CAF#2) | drug sensitivity score (CAF#3) | drug sensitivity score (CAF#4) | drug sensitivity score (CAF#5) | drug sensitivity score (CAF#6) | drug sensitivity score (CAF#7) | drug sensitivity score (LNCAP) | drug sensitivity score (PF179T) | drug sensitivity score (WPMY-1)
1 | Cc1ccc(-n2nc(C(C)(C)C)cc2NC(=O)Nc2ccc(OCCN3CCOCC3)c3ccccc23)cc1 [Doramapimod] (tested concentration range 1-10000 nM) | 2.5 | 1.9 | 2.7 | 1.2 | 0 | 0.6 | 0.9 | 1.4 | 5.4 | 2.1 | 0
2 | Cn1cc(C[C@@H](N)C(=O)O)c2ccccc21 [Indoximod] (tested concentration range 0.5-5000 nM) | 0 | 0 | 0 | 0 | 0 | 0.6 | 0 | 0 | 0 | 0 | 0
3 | CCN(CC)CCCC(C)Nc1c2ccc(Cl)cc2nc2ccc(OC)cc12 (stereo not given) [Mepacrine] (tested concentration range 5-50000 nM) | 17.3 | 9.1 | 14.9 | 11.3 | 14.2 | 13.4 | 9.9 | 12.6 | 19 | 13.7 | 19.6
4 | O=C(CCCCCCC(=O)Nc1ccc([C@H]2O[C@@H](CSc3nc(-c4ccccc4)c(-c4ccccc4)o3)C[C@@H](c3ccc(CO)cc3)O2)cc1)NO [Tubacin] (tested concentration range 1-10000 nM) | 5.6 | 2 | 2.4 | 0 | 1.4 | 2.3 | 1.1 | 3.3 | 7 | 3.4 | 5.3
5 | C=CC(=O)N1CC/C(=C\c2ccc(F)c([N+](=O)[O-])c2)C(=O)/C(=C/c2ccc(F)c([N+](=O)[O-])c2)C1 [VLX1570] (tested concentration range 1-10000 nM) | 26.9 | 26.9 | 29.7 | 17.3 | 28 | 25.1 | 17.5 | 19.5 | 21.4 | 22.2 | 29.3
6 | Cn1cnc2c(F)c(Nc3ccc(Br)cc3F)c(C(=O)NOCCO)cc21 [Binimetinib] (tested concentration range 0.1-1000 nM) | 8.7 | 0 | 2.2 | 0 | 0 | 0.8 | 0 | 0.2 | 0 | 0 | 0.9
7 | COc1cc2c(NC3CCN(C(C)C)CC3)nc(C3CCCCC3)nc2cc1OCCCN1CCCC1 [UNC0638] (tested concentration range 1-10000 nM) | 7.2 | 0 | 0 | 7.7 | 0 | 0 | 6.5 | 6.6 | 6 | 5.2 | 6.1
8 | COC(=O)C[C@](O)(CCCC(C)(C)O)C(=O)O[C@@H]1C(OC)=C[C@]23CCCN2CCc2cc4c(cc2[C@H]13)OCO4 [Omacetaxine] (tested concentration range 1-10000 nM) | 35 | 19.1 | 21.9 | 20.6 | 15.3 | 18.7 | 20 | 21.4 | 29.2 | 22 | 25.2
9 | CC(C)C(=O)Nc1ccc([N+](=O)[O-])c(C(F)(F)F)c1 [Flutamide] (tested concentration range 1-10000 nM) | 0.6 | 0 | 2.8 | 0 | 4.8 | 0.5 | 0 | 0 | 1.1 | 0 | 0
10 | O=C(/C=C\n1cnc(-c2cc(C(F)(F)F)cc(C(F)(F)F)c2)n1)NNc1cnccn1 [Selinexor] (tested concentration range 1-10000 nM) | 30.5 | 16.5 | 21.3 | 9.9 | 17.8 | 14.6 | 11.7 | 11.9 | 26.2 | 16.4 | 27.4
11 | Cc1nc(=O)c2cc(CN(C)c3ccc(C(=O)N[C@@H](CCC(=O)O)C(=O)O)s3)ccc2[nH]1 [Raltitrexed] (tested concentration range 0.1-1000 nM) | 0 | 3.3 | 4.4 | 0 | 0.8 | 2.8 | 0.2 | 0 | 11.1 | 0.3 | 14
12 | N#CC(c1ccnc(OCc2ccc(CN3CCOCC3)cc2)n1)c1nc2ccccc2s1 (stereo not given) [Bentamapimod] (tested concentration range 1-10000 nM) | 1.8 | 1.7 | 2.6 | 0 | 3.4 | 0 | 0 | 0 | 5.2 | 0 | 2.8
13 | CS(=O)(=O)N1CCN(Cc2cc3nc(-c4cccc5[nH]ncc45)nc(N4CCOCC4)c3s2)CC1 [Pictilisib] (tested concentration range 1-10000 nM) | 16.1 | 11.7 | 11.5 | 10.9 | 10.9 | 12 | 7.7 | 9.3 | 13.7 | 11.2 | 12
14 | Cn1cncc1[C@@](N)(c1ccc(Cl)cc1)c1ccc2c(c1)c(-c1cccc(Cl)c1)cc(=O)n2C [Tipifarnib] (tested concentration range 1-10000 nM) | 13.8 | 2.1 | 7.6 | 7.3 | 7 | 4.8 | 3.2 | 1.4 | 14.8 | 4.6 | 9.8
15 | Oc1ccc2c(c1)CC[C@H](c1ccccc1)[C@@H]2c1ccc(OCCN2CCCC2)cc1 [Lasofoxifene] (tested concentration range 0.1-1000 nM) | 0 | 0 | 0 | 0 | 0 | 1.3 | 0 | 0 | 0 | 0 | 0
16 | CC[C@]1(O)C[C@H]2CN(CCc3c([nH]c4ccccc34)[C@@](C(=O)OC)(c3cc4c(cc3OC)N(C=O)[C@H]3[C@@](O)(C(=O)OC)[C@H](OC(C)=O)[C@]5(CC)C=CCN6CC[C@]43[C@@H]65)C2)C1 [Vincristine] (tested concentration range 0.1-1000 nM) | 12.3 | 4.4 | 5.1 | 4.7 | 2 | 4.3 | 5.6 | 11.5 | 26 | 4.5 | 12.1
17 | Cc1sc2c(c1C)C(c1ccc(Cl)cc1)=N[C@@H](CC(=O)Nc1ccc(OCCOCCOCCOCCNc3cccc4c3C(=O)N(C3CCC(=O)NC3=O)C4=O)cc1)c1nnc(C)n1-2 (stereo not given in full) [ARV-825] (tested concentration range 0-300 nM) | 14.7 | 7.7 | 5.8 | 15.6 | 6.9 | 6.2 | 11.6 | 17.1 | 17.1 | 3.3 | 8.1
18 | CC(C)NC[C@@H](C(=O)N1CCN(c2ncnc3c2[C@H](C)C[C@H]3O)CC1)c1ccc(Cl)cc1 [Ipatasertib] (tested concentration range 1-10000 nM) | 5.7 | 0.6 | 1.2 | 1.8 | 0.1 | 1.1 | 1.7 | 0 | 22.6 | 0 | 2
19 | CC[C@H](C)C(=O)O[C@H]1C[C@@H](C)C=C2C=C[C@H](C)[C@H](CC[C@@H]3C[C@@H](O)CC(=O)O3)[C@H]21 [Lovastatin] (tested concentration range 1-10000 nM) | 1 | 2.8 | 5.5 | 0.3 | 3.4 | 3.7 | 2.6 | 3 | 0 | 3.3 | 1.1
20 | CCC1(c2ccc(N)cc2)CCC(=O)NC1=O (stereo not given) [Aminoglutethimide] (tested concentration range 1-10000 nM) | 0 | 0 | 0 | 0.2 | 0 | 0 | 0 | 0 | 0.3 | 0 | 0
21 | CCN(c1cc(-c2ccc(CN3CCOCC3)cc2)cc(C(=O)NCc2c(C)cc(C)[nH]c2=O)c1C)C1CCOCC1 [Tazemetostat] (tested concentration range 1-10000 nM) | 0 | 1 | 1.8 | 1.2 | 0.4 | 0.9 | 0.7 | 0 | 1.9 | 0 | 0
22 | CN1CCN(c2nc(C3=C(c4c[nH]c5ccccc45)C(=O)NC3=O)c3ccccc3n2)CC1 [Sotrastaurin] (tested concentration range 1-10000 nM) | 3.6 | 0 | 2.2 | 0 | 0 | 0 | 0 | 0 | 3.5 | 0 | 1.5
23 | CC(C)(O)CNc1nc(Nc2ccnc(C(F)(F)F)c2)nc(-c2cccc(C(F)(F)F)n2)n1 [Enasidenib] (tested concentration range 1-10000 nM) | 1.7 | 0 | 0 | 0.4 | 0 | 0 | 0 | 0 | 1.2 | 0 | 0
24 | Nc1nc(Nc2ccc3c(c2)CC[C@@H](N2CCCC2)CC3)nn1-c1cc2c(nn1)-c1ccccc1CCC2 [Bemcentinib] (tested concentration range 1-10000 nM) | 5 | 2.5 | 3.2 | 8.6 | 1.8 | 4.1 | 5.7 | 2.7 | 5.4 | 5 | 8.5
25 | COc1cc(CCc2cc(NC(=O)c3ccc(N4CC(C)NC(C)C4)cc3)n[nH]2)cc(OC)c1 (stereo not given) [AZD4547] (tested concentration range 0.1-1000 nM) | 0 | 1.1 | 2.5 | 6.7 | 0.6 | 1.3 | 5.8 | 13.1 | 0.3 | 3.5 | 0.2
